Results as given in patent publication US12582616B2, “Molecular targets for modulation of dissociative and associative states” (The Board of Trustees of the Leland Stanford Junior …, priority 2020, dated 2026).
“Also recorded” adds a separate entry of the source.

Columns and labels:
[1] = tested on: retrosplenial cortex (RSP); experiment: Widefield imaging of cortical activity in GCaMP6s mice; conditions: i.p. injection, ketamine 50 mg/kg
Description: We recorded multiregional neuronal activity by leveraging widefield microscopy, a cleared skull preparation, and atlas registration in GCaMP6s-expressing mice (FIGS. 1A-1C)^6,8,15.
As described^8, mice were anesthetized with isoflurane, the scalp was removed, the skull cleaned and dried, and a custom head-plate was cemented to contacts over the cerebellum and in front of the olfactory bulb. The skull was then covered in a thin layer of cyanoacrylate glue (Apollo 2000, Cyberbond), clear dental acrylic (Ortho-Jet, Lang Dental), and clear nail polish (Electron Microscopy Services). […] (0.1 mg/kg) was injected subcutaneously for pain management. […] Imaging was performed on a custom-built fluorescence microscope designed for high light collection efficiency and large field of view. […] Alternating 410 nm and 488 nm illumination for non-Ca^2+ dependent artifact removal was controlled using a microcontroller (Arduino) slaved to the frame output trigger of the camera.
Analysis was performed using custom MATLAB (MathWorks) scripts. Widefield imaging videos were registered to a 2D top-projection atlas generated from the annotated Allen Brain Atlas volume, version CCFv2, in MATLAB (MathWorks), using an affine transformation computed from four manually selected control points. Each video was DF/F normalized, using the median for each pixel over the entire time series as F. The 410 nm channel was then temporally smoothed using a moving average (width=400 ms). The smoothed 410 nm DF/F signal for each pixel was regressed onto the 488 nm DF/F signal for the corresponding pixel, and the regression coefficients were used to scale the 410 nm channel to the 488 nm channel. This scaled 410 nm DF/F signal was then subtracted from the 488 nm DF/F signal to produce a normalized signal for each pixel. For quantification, activity traces were extracted from points centered in five cortical regions (visual, somatosensory, parietal, motor, retrosplenial) on the left hemisphere of the brain. The video data was Gaussian smoothed spatially (radius=2 pixels).
Each trace (corresponding to either a fiber photometry signal, a cellular two-photon signal, a widefield regional centroid, a widefield pixel, an sEEG trace, or a smoothed spike rate Neuropixels trace) was z-scored, and the power spectral density (PSD) was then estimated using Welch's method (pwelch( ) in Matlab), with a window size of 10*fs (15*fs for human sEEG) where fs is the sampling rate of the signal. The average band power within a specified band (i.e. 1-3 Hz) was then computed by integrating the PSD estimate (bandpower in Matlab). […] Unless otherwise indicated, the PSD was computed across the time window from minutes 10 to 11 post-injection.

mice [2] = experiment: Tail suspension test; format: in vivo, mouse; conditions: PCP 5 mg/kg
Description: Tail Suspension Test: Mouse activity was recorded using a 60 Hz web camera. Struggling activity was quantified for minutes 2-10. […] Illumination began 30 seconds before tails were secured with tape and suspended from the beam. Mice were excluded if they climbed on their own tails.

mice [3] = experiment: Hot plate test; conditions: for dissociation-like behavior (sensory-detection vs affective responses), hot plate: other drug classes
Description: Hot Plate Test: Mice were placed on the hot plate (Bioseb), which was set to 55° C. and surrounded by a clear circular perimeter. Mouse activity was recorded using two cameras from different angles. The experiment ended when the mouse jumped to escape or 90 seconds had elapsed. Care was taken to clean and dry the hot plate apparatus between animals. For optogenetic experiments, mice were connected to patch cords and then returned to a holding cage. Illumination began 30 seconds before mice were placed on the hot plate.

mice [4] = experiment: Open field test; format: in vivo, mouse; conditions: 5 min session, compared with saline
Description: Open Field Test: Mice were placed in an evenly illuminated 50 cm×50 cm open field test box. Mouse position was captured using a webcam and Viewer software (Biobserve).

C[C@]12N[C@H](Cc3ccccc31)c1ccccc12 [MK-801]
1-3 Hz oscillation localized to retrosplenial cortex (RSP), widefield imaging [1]: induced the RSP-localized oscillation

CC12CC3CC(C)(C1)CC(N)(C3)C2 [memantine]
1-3 Hz oscillation localized to retrosplenial cortex (RSP), widefield imaging [1]: did not elicit oscillation

c1ccc(C2(N3CCCCC3)CCCCC2)cc1 [PCP, phencyclidine]
1-3 Hz oscillation localized to retrosplenial cortex (RSP), widefield imaging [1]: induced the RSP-localized oscillation | longer-timescale escape and social behaviors (mice [2]): inhibited longer-timescale escape and social behaviors | dissociation-like behavior (sensory-detection vs affective responses), hot plate (mice [3]): recapitulated ketamine's behavioral disconnection between sensory-detection and affective responses | open-field locomotion velocity (mice [4]): locomotion velocity was unchanged

CC(C)c1cccc(C(C)C)c1O [propofol]
1-3 Hz oscillation localized to retrosplenial cortex (RSP), widefield imaging [1]: elicited waves of cortical activity without RSP restriction

CN1C(=O)CN=C(c2ccccc2)c2cc(Cl)ccc21 [diazepam]
1-3 Hz oscillation localized to retrosplenial cortex (RSP), widefield imaging [1]: Neither the GABAergic sedative diazepam nor the centrally-acting opioid-analgesic buprenorphine elicited the rhythm | dissociation-like behavior (sensory-detection vs affective responses), hot plate (mice [3]): did not recapitulate dissociative-like behavior | open-field locomotion velocity (mice [4]): decreased velocity

Cc1cccc([C@H](C)c2cnc[nH]2)c1C [dexmedetomidine]
1-3 Hz oscillation localized to retrosplenial cortex (RSP), widefield imaging [1]: elicited waves of cortical activity without RSP restriction

(+)-Lysergic acid diethylamide (+)-tartrate (2:1) [LSD]
1-3 Hz oscillation localized to retrosplenial cortex (RSP), widefield imaging [1]: did not elicit oscillation | responsivity to salient stimuli (time-to-jump, rearing/socialization) (mice [3]; LSD 0.3 mg/kg): tended to increase responsivity to salient stimuli | dissociation-like behavior (sensory-detection vs affective responses), hot plate (mice [3]): disrupted neither sensory-detection nor affective responses | open-field locomotion velocity (mice [4]): reducing locomotion in the stimulus-poor open-field; also recorded: decreased velocity
